Measured values taken from patent US8153593B2, “Transglutaminase inhibitors and methods of use thereof” (The Board of Trustees of the Leland Stanford Junior …, priority 2003, dated 2012).

Test system: B16 mouse melanoma cells
Assay: Melanoma cell treatment with KCC009 and/or BCNU
Format: cell-based
Conditions: 24 h, 1 mM KCC009 alone or with 6.25 μM BCNU
Experimental: FIG. 6A-6D: Photomicrographs of B16 (mouse melanoma cells) after 24 h treatment with KCC009 and/or BCNU. A) Control; B) 1 mM KCC009 only; C) 6.25 μM BCNU only; D) KCC009+BCNU combination.
Activity of KCC009 against melanomas: Melanomas are cancers of the neural crest-derived cells that provide pigmentation to skin and other tissues. No current treatments substantially enhance patient survival once metastasis has occurred.

## O=C(N[C@@H](Cc1ccc(O)cc1)C(=O)NCC1CC(Br)=NO1)OCc1ccccc1 (stereo partly shown) [Compound 59]
  sensitivity of melanoma cells: sensitive
